ChEMBL document CHEMBL1127573, “Anticancer specificity of some ellipticinium salts against human brain tumors in vitro” (1994)

Assays:
Assay type in all cases: functional
Homo sapiens [1] = species: Homo sapiens; assay: TGI correlation coefficient value of the compound
Homo sapiens [2] = species: Homo sapiens; assay: Concentration yielding an amount of cellular protein at the end of the incubation that is the same as at the beginning of the incubation in full panel
Homo sapiens [3] = species: Homo sapiens; assay: Concentration yielding an amount of cellular protein at the end of the incubation that is the same as at the beginning of the incubation in brain tumor sub panel
[4] = Selectivity rating against brain tumor cell line panel; i moderatelyselective (*) if 3< (A/B)< 6 and TGI-Corr > 0.8
[5] = Selective rating against brain tumor cell line panel; i selective (**) if (A/B)> 6 and TGI-Corr > 0.8
[6] = Selectivity rating for brain tumor cell line panel; i selective (**) if (A/B)> 6 and TGI-Corr > 0.8

SMILES | TGI correlation coefficient (Homo sapiens [1]) | TGI concentration (Homo sapiens [2]) | TGI concentration (Homo sapiens [3]) | Selectivity rating [4] | Selectivity rating [5] | Selectivity rating [6]
COc1ccc2[nH]c3c(C)c4ccncc4c(C)c3c2c1 | <0.5 | 3.2 µM | 3.6 µM | – | – | –
CCN(CC)CC[n+]1ccc2c(C)c3[nH]c4ccccc4c3c(C)c2c1.[Br-] | 0.66 | 4.2 µM | 2.7 µM | – | – | –
CC(=O)[O-].Cc1c2cc[n+](C)cc2c(C)c2c1[nH]c1ccc(Cl)cc12 | 0.85 | 22 µM | 4.7 µM | Moderately selective | – | –
CC(=O)[O-].Cc1ccc2[nH]c3c(C)c4cc[n+](C)cc4c(C)c3c2c1 | 0.83 | 21 µM | 6.9 µM | Moderately selective | – | –
COc1ccc2[nH]c3c(C)c4cc[n+](C)cc4c(C)c3c2c1.[I-] | 1 | 11 µM | 1.1 µM | – | – | –
Cc1c2cc[n+](C)cc2c(C)c2c1[nH]c1ccccc12 | – | – | – | – | Selective | –
Cc1c2ccncc2c(C)c2c1[nH]c1ccc(O)cc12 | <0.5 | 2.8 µM | 3.4 µM | – | – | –
CC(=O)[O-].COc1ccc2[nH]c3c(C)c4cc[n+](C)cc4c(C)c3c2c1 | 0.94 | 18 µM | 2.1 µM | – | – | –
Cc1c2cc[n+](C)cc2c(C)c2c1[nH]c1ccccc12.[I-] | 0.96 | 12 µM | 1.4 µM | – | – | –
COc1ccc2[nH]c3c(C)c4cc[n+](C)cc4c(C)c3c2c1 | – | – | – | – | Selective | –
Cc1nccc2c(C)c3[nH]c4ccccc4c3cc12 | <0.5 | 3.6 µM | 3.7 µM | – | – | –
CS(=O)(=O)[O-].Cc1c2cc[n+](C)cc2c(C)c2c1[nH]c1ccccc12 | 0.86 | 11 µM | 1 µM | – | – | –
Cc1c2ccncc2c(C)c2c1[nH]c1ccccc12 [ELLIPTECINE] | <0.5 | 3 µM | 2.9 µM | – | – | –
Cc1c2cc[n+](Cc3ccc(I)cc3)cc2c(C)c2c1[nH]c1ccccc12.[Cl-] | <0.5 | 44 µM | 54 µM | – | – | –
Cc1c2cc[n+](CCN3CCCCC3)cc2c(C)c2c1[nH]c1ccc(O)cc12 | 0.71 | 34 µM | 20 µM | – | – | –
CC(=O)[O-].Cc1c2cc[n+](C)cc2c(C)c2c1[nH]c1ccc(O)cc12 [ELLIPTINIUM ACETATE] | <0.5 | 78 µM | 58 µM | – | – | –
Cc1ccc2[nH]c3c(C)c4ccncc4c(C)c3c2c1 | <0.5 | 2.7 µM | 3.1 µM | – | – | –
Cc1c2cc[n+]([O-])cc2c(C)c2c1[nH]c1ccccc12 | <0.5 | 62 µM | 41 µM | – | – | –
CCN(CC)CC[n+]1ccc2c(C)c3[nH]c4ccc(O)cc4c3c(C)c2c1.[Cl-] [DATELLIPTIUM CHLORIDE] | 0.78 | 34 µM | 16 µM | – | – | –
CC(=O)[O-].Cc1c2cc[n+](C)c(C)c2cc2c1[nH]c1ccccc12 | 0.8 | 32 µM | 8.9 µM | – | – | Moderately selective
C=CCCCCn1c2ccccc2c2c(C)c3c[n+](C)ccc3c(C)c21.CC(=O)[O-] | 0.6 | 2.9 µM | 1.8 µM | – | – | –
Cc1c2ccncc2c(C)c2c1[nH]c1ccc(Cl)cc12 | <0.5 | 17 µM | 16 µM | – | – | –
CC(=O)[O-].Cc1c2cc[n+](C)cc2c(C)c2c1oc1ccccc12 | 0.89 | 20 µM | 5.5 µM | Moderately selective | – | –
